PMC9981942, “Pharmacokinetics and tissue distribution of Ramulus Mori (Sangzhi) alkaloids in rats and its effects on liver enzyme activity” (Frontiers in Pharmacology, 2023)
“And” between values parts separate entries of the source, which are not always exact repeats. Equal entries are not always repeated. Where two headings read alike, the source gives them in different places.

Experiments:
[1] = parameters: method as in Yang et al., 2017; settings: ref Yang et al., 2017, cited from earlier work
[2] = Identification of metabolites in HLMs/RLMs and rat plasma (Q-Extractive high-resolution MS); assay type: in vitro ADME, human; settings: HLMs/RLMs and rat plasma reaction system
Experimental: Furthermore, 5 μL of the supernatant was collected for LC-MS/MS analysis. The LC-MS/MS conditions were as follows: chromatographic column (XBridge™ Amide, 3.5 µm, 4.6 × 150 mm); mobile phase, water (0.1% ammonia) and acetonitrile, other conditions are the same as those in CYP450s inhibition study, with the following scan parameters: resolution, 70,000; AGC target, 3,000,000; maximum IT, 200 ms; and scan range, 50–600 m/z.

[3] = test system: CYP450s in RLMs (other isoenzymes); assay: Effect on activity of rat liver microsome isoenzymes other than CYP2C11; settings: SZ-A 8.899 μg/mL, DNJ 20 μM, FA 5 μM, DAB 8 μM
[4] = Tissue distribution after single oral SZ-A (20 mg/kg) in ICR mice; assay type: in vivo
Experimental: Twenty SD rats were randomly classified into four groups corresponding to four-time points (5 and 30 min, 4 and 12 h) (n = 20; 5 animals per time point) that received SZ-A solution (40 mg/kg) via oral administration. After the completion of dose administration, plasma and tissue samples (derived from the heart, liver, spleen, lung, kidney, aortic blood vessels, brown adipose tissue, subcutaneous adipose tissue, abdominal adipose tissue, muscle (thigh skeletal muscle), pancreas, and brain) were collected at predetermined time points. Twenty-eight ICR mice were randomly classified into four groups (n = 7 per group) corresponding to four-time points (5 and 30 min, 4 and 12 h) that received SZ-A solution (20 mg/kg) via oral administration. After the completion of dose administration, tissue samples (derived from the heart, liver, spleen, lung, kidney, aortic blood vessels, brown adipose tissue, abdominal adipose tissue, muscle (thigh skeletal muscle), pancreas, and brain) were collected at predetermined time points.
Collected tissue samples were washed with normal saline. The surface moisture was removed by blotting gently with filter paper, and the weight was recorded. After adding an appropriate amount of normal saline, these tissue samples were ground into homogenates using a cryogenic grinder (JX-CL, Shanghai Jingxin, Shanghai, China). The obtained homogenates were stored at −80°C until LC-MS/MS analysis.

[5] = Pharmacokinetic study: plasma levels after oral SZ-A in SD rats (LC-MS/MS, DAS 3.2.8); assay type: in vivo; settings: plasma, plasma; for Tmax / AUC(0-inf) / AUC(0-t) / Cmax / half-life / MRT last / MRT inf: both sexes, rat; for Tmax: SD, po; for AUC(0-inf) / AUC(0-t) / Cmax / half-life / CLz / VRT(0-t) / VRT(0-∞) / Vz: n=8; for MRT last: n=8, read-out: MRT(0-t); for MRT inf: n=8, read-out: MRT(0-∞)
Experimental: Twenty-four SD rats were fasted for 12 h (free access to water) and randomly classified into three groups (n = 8; half male and female) that received different doses of SZ-A solution (25, 50, and 200 mg/kg) via oral administration. After completion of dose administration, blood samples (0.3 mL) were collected through an indwelling catheter from the jugular vein at predetermined time points (5, 15, 30, and 45 min, 1, 2, 4, 8, and 24 h). The blood was centrifuged at 5,000 rpm for 10 min to separate the plasma. All plasma samples were stored frozen at −80°C until liquid chromatography coupled to tandem mass spectrometry (LC-MS/MS) analysis (AB SCIEX Triple Quad™ 4,500 mass spectrometer, Applied Biosystems Inc., United States).
Primary pharmacokinetic parameters, including Cmax, Tmax, area under the plasma concentration-time curve (AUC), t1/2, clearance rate, and the apparent volume of distribution, were calculated using DAS 3.2.8 (Bio Guider Co., Shanghai, China).

rat CYP2C11 = biological target: T1, rat CYP2C11 (Rattus norvegicus, UniProt P08683); assay: Inhibition of CYP450s in rat liver microsomes, probe mephenytoin; settings: RLMs; SZ-A 8.899 μg/mL, DNJ 20 μM, FA 5 μM, DAB 8 μM
T1 sequence (P08683 1-500): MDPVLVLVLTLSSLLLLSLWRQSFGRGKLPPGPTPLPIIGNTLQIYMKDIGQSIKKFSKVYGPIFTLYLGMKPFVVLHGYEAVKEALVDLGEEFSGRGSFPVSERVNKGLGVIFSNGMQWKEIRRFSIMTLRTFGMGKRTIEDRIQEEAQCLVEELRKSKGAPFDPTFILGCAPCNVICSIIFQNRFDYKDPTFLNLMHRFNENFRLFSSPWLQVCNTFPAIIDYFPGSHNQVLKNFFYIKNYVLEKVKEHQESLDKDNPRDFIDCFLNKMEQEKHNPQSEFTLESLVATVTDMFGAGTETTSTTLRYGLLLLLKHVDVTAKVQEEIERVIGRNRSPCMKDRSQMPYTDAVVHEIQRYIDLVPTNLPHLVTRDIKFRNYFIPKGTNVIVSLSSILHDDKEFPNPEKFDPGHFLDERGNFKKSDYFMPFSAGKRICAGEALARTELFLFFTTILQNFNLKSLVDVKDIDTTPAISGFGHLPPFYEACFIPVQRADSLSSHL

major CYP450s in HLMs = assay: Effect on activity of the major CYP450s in human liver microsomes (all isoforms together); settings: final concentration SZ-A 8.899 μg/mL (equivalent to DNJ 20 μM), FA 5 μM, DAB 8 μM

Compound: OC[C@H]1NCC[C@@H](O)[C@@H]1O [FA, fagomine]
- form excreted ([1]; material conservation within 24 h after oral administration of SZ-A): mainly excreted in their original forms
- oral absolute bioavailability ([1]; rats, after oral administration of SZ-A): 77.50% and > 70%
- pharmacokinetic profile versus dose ([1]; rats, oral SZ-A 20–500 mg/kg): non-linear pharmacokinetics
- metabolites found [2]: only trace oxidation products
- effect on other isoenzymes in RLMs [3]: no obvious effect
- tissues with the highest concentrations [4]: kidney, followed by the liver
- Tmax ([5]; 25 mg/kg, oral SZ-A 25 mg/kg, n=8, read-out: Tmax): 0.5 ± 0.3 h
- Tmax ([5]; 50 mg/kg, oral SZ-A 50 mg/kg, n=8, read-out: Tmax): 0.56 ± 0.37 h
- Tmax ([5]; 200 mg/kg, oral SZ-A 200 mg/kg, n=8, read-out: Tmax): 0.88 ± 0.27 h
- Tmax ([5]; 200 mg/kg, oral SZ-A 25, 50 and 200 mg/kg, read-out: time to maximum plasma concentration (Tmax), all dose groups): ≤ 0.88 h
- AUC(0-inf) ([5]; oral SZ-A 25 mg/kg): 1040 ± 356 ng·h/mL
- AUC(0-t) ([5]; oral SZ-A 25 mg/kg): 1040 ± 356 ng·h/mL
- Cmax ([5]; oral SZ-A 25 mg/kg): 616 ± 168 ng/mL
- half-life ([5]; oral SZ-A 25 mg/kg): 1.16 ± 0.31 h
- MRT last ([5]; oral SZ-A 25 mg/kg): 1.55 ± 0.23 h
- MRT inf ([5]; oral SZ-A 25 mg/kg): 1.55 ± 0.23 h
- AUC(0-inf) ([5]; oral SZ-A 50 mg/kg): 2370 ± 634 ng·h/mL
- AUC(0-t) ([5]; oral SZ-A 50 mg/kg): 2370 ± 634 ng·h/mL
- Cmax ([5]; oral SZ-A 50 mg/kg): 1250 ± 506 ng/mL
- half-life ([5]; oral SZ-A 50 mg/kg): 1.19 ± 0.03 h
- MRT last ([5]; oral SZ-A 50 mg/kg): 1.67 ± 0.61 h
- MRT inf ([5]; oral SZ-A 50 mg/kg): 1.67 ± 0.61 h
- AUC(0-inf) ([5]; oral SZ-A 200 mg/kg): 6010 ± 1650 ng·h/mL
- AUC(0-t) ([5]; oral SZ-A 200 mg/kg): 6010 ± 1650 ng·h/mL
- Cmax ([5]; oral SZ-A 200 mg/kg): 2580 ± 1250 ng/mL
- half-life ([5]; oral SZ-A 200 mg/kg): 1.08 ± 0.04 h
- MRT last ([5]; oral SZ-A 200 mg/kg): 1.97 ± 0.22 h
- MRT inf ([5]; oral SZ-A 200 mg/kg): 1.97 ± 0.22 h
- CLz ([5]; oral SZ-A 25 mg/kg): 78.5 ± 24.3 mL/min/kg
- VRT(0-t) ([5]; oral SZ-A 25 mg/kg): 1.46±0.55 h^2
- VRT(0-∞) ([5]; oral SZ-A 25 mg/kg): 1.46±0.55 h^2
- Vz ([5]; oral SZ-A 25 mg/kg): 7.62 ± 2.89 L/kg
- CLz ([5]; oral SZ-A 50 mg/kg): 66.7 ± 17.3 mL/min/kg
- VRT(0-t) ([5]; oral SZ-A 50 mg/kg): 1.90±2.02 h^2
- VRT(0-∞) ([5]; oral SZ-A 50 mg/kg): 1.91±2.02 h^2
- Vz ([5]; oral SZ-A 50 mg/kg): 6.88 ± 1.85 L/kg
- CLz ([5]; oral SZ-A 200 mg/kg): 105 ± 26.7 mL/min/kg
- VRT(0-t) ([5]; oral SZ-A 200 mg/kg): 3.08±0.76 h^2
- VRT(0-∞) ([5]; oral SZ-A 200 mg/kg): 3.08±0.76 h^2
- Vz ([5]; oral SZ-A 200 mg/kg): 9.94 ± 2.86 L/kg
- effect on rat CYP2C11 (rat CYP2C11): mild activation effect
- effect on the major CYP450s in HLMs, either inhibition or activation (major CYP450s in HLMs): no significant effect
